Data: patent US7319098B2, “1,3-dioxoisoindole derivatives having selective antagonism of T-type calcium channel” (Korea Institute of Science and Technology, priority 2006, dated 2008)

What follows are compounds tested against T1, α1G T-type Ca2+ channels (Homo sapiens, UniProt O43497) (assay: Screening of activity against T-type calcium channel with FDSS6000 (fluorescence, KCl-induced [Ca2+]i increase)). Settings: 10 μM; HEK293 cells expressing α1G and Kir2.1; NA: Not Active; read-out: Inhibitory effect (%) of T-type calcium channel, Inhibition (%).
T1 construct: expressed in transfected cells; host or cells: HEK293 cells stably expressing α1G and Kir2.1
T1 sequence (O43497 whole entry): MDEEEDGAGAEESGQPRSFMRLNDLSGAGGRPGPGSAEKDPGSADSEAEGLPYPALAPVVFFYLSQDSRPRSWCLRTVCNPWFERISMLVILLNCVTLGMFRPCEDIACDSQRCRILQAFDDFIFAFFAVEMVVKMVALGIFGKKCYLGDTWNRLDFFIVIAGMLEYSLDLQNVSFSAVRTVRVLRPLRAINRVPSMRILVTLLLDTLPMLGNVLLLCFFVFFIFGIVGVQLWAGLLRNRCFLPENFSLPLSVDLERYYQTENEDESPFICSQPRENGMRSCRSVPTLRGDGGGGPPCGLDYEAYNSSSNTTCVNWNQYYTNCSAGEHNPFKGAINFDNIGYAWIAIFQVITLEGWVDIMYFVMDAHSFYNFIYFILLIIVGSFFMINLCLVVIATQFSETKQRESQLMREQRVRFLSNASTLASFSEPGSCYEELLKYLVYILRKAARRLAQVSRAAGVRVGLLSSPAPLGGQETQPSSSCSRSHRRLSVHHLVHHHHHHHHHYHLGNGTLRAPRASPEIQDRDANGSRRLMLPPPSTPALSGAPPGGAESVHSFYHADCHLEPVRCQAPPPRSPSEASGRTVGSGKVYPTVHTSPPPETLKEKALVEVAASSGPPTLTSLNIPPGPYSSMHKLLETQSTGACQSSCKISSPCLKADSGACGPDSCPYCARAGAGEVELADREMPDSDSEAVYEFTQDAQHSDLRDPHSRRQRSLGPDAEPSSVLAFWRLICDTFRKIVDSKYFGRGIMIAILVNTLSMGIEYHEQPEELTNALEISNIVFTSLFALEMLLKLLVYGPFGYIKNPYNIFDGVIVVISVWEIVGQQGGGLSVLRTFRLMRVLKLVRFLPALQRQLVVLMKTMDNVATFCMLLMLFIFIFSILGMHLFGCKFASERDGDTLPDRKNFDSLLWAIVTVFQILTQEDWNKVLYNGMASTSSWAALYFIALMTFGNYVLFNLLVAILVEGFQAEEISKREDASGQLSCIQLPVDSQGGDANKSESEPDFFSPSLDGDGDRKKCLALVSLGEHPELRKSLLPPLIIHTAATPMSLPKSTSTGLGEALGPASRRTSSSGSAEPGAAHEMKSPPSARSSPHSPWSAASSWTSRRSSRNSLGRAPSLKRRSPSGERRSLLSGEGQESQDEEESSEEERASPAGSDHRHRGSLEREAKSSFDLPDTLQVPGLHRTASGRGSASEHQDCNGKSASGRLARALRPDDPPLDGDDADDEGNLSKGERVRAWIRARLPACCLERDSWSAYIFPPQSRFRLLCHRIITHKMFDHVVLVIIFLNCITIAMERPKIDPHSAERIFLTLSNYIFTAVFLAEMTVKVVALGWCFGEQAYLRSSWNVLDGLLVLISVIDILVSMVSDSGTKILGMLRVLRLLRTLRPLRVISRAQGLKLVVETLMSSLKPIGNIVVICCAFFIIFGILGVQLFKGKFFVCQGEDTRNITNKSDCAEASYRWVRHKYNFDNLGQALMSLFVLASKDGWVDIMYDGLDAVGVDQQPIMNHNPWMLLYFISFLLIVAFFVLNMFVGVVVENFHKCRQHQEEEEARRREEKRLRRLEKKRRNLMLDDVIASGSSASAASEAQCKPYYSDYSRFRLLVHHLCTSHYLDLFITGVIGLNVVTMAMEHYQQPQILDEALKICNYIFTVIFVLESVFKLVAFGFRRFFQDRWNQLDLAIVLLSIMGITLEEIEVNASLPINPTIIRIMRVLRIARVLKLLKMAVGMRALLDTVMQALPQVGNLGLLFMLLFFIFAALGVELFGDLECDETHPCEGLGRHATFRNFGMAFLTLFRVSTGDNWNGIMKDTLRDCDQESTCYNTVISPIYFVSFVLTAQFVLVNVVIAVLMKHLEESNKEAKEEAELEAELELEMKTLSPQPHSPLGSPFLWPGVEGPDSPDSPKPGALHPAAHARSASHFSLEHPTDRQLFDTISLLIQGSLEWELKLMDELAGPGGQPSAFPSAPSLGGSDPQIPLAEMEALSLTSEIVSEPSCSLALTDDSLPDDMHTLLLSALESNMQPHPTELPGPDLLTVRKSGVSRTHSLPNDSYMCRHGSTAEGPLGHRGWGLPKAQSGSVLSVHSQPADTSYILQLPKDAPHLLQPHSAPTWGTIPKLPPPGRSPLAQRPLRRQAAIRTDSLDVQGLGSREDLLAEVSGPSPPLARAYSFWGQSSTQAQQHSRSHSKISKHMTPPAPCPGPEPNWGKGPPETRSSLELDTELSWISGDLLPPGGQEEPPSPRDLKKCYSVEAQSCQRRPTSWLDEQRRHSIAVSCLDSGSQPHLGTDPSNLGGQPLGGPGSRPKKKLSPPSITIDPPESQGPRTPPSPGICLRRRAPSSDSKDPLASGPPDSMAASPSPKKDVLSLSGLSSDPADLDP
Assay type: cell-based
Summary of the method: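 HEK293 cells stably expressing α1G plus Kir2.1 were loaded with 5 μM fluo3/AM for 60 min at room temperature in HEPES buffer pH 7.4. In buffer with 10 mM CaCl2, cells were pretreated with compound, then depolarized with 70 mM KCl. The rise in [Ca2+]i was measured by fluorescence […].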

Q: `CC1CCCCN1CCCNC(=O)c1ccc2c(c1)C(=O)N(Cc1ccccc1Cl)C2=O` (stereo not shown) [Compound 76, 1-(3-{[2-(2-chloro-benzyl)-1,3-dioxo-2,3-dihydro-1H-isoindol-5-carbonyl]-amino}-propyl)-2-methyl-piperidinium chloride] was tested. Which inhibition at 10 µM did it give?
A: 50.9%

Q: How did the inhibition at 10 µM turn out when `CC1CCCCN1CCCNC(=O)c1ccc2c(c1)C(=O)N(Cc1cccc(Cl)c1)C2=O` (stereo not shown) [Compound 82, 1-(3-{[2-(3-chloro-benzyl)-1,3-dioxo-2,3-dihydro-1H-isoindol-5-carbonyl]-amino}-propyl)-2-methyl-piperidinium chloride] was run?
A: 46.2%

Q: With `O=C(NCCN1CCCCC1)c1ccc2c(c1)C(=O)N(Cc1ccc(Cl)cc1)C2=O` [Compound 87, 1-(2-{[2-(4-chloro-benzyl)-1,3-dioxo-2,3-dihydro-1H-isoindol-5-carbonyl]-amino}-ethyl)-piperidinium chloride] as the compound, how does the inhibition at 10 µM read?
A: 47.2%

Q: Which inhibition at 10 µM does the source give for `Cc1ccc(CN2C(=O)c3ccc(C(=O)NCCN4CCCC4)cc3C2=O)cc1` [Compound 107, 1-(2-{[2-(4-methyl-benzyl)-1,3-dioxo-2,3-dihydro-1H-isoindol-5-carbonyl]-amino}-ethyl)-pyrrolidinium chloride] here?
A: 20.7%

Q: With `Cc1ccc(CN2C(=O)c3ccc(C(=O)NCCCN4CCCC4)cc3C2=O)cc1` [Compound 108, 1-(3-{[2-(4-methyl-benzyl)-1,3-dioxo-2,3-dihydro-1H isoindol-5-carbonyl]-amino}-propyl)-pyrrolidinium chloride] as the compound, how does the inhibition at 10 µM read?
A: 15.6%

Q: For `Cc1ccc(CN2C(=O)c3ccc(C(=O)NCCN4CCOCC4)cc3C2=O)cc1` [Compound 109, 4-(2-{[2-(4-methyl-benzyl)-1,3-dioxo-2,3-dihydro-1H-isoindol-5-carbonyl]-amino}-ethyl)-4-morpholinium chloride], which inhibition at 10 µM is on record?
A: 12.2%

Q: Which inhibition at 10 µM does the source give for `Cc1ccc(CN2C(=O)c3ccc(C(=O)NCCCN4CCOCC4)cc3C2=O)cc1` [Compound 110, 4-(3-{[2-(4-methyl-benzyl)-1,3-dioxo-2,3-dihydro-1H-isoindol-5-carbonyl]-amino}-propyl)-4-morpholinium chloride] here?
A: 9.1%

Q: How did the inhibition at 10 µM turn out when `CC1CCCCN1CCCNC(=O)c1ccc2c(c1)C(=O)N(Cc1ccc(C#N)cc1)C2=O` (stereo not shown) [Compound 130, 1-(3-{[2-(4-cyano-benzyl)-1,3-dioxo-2,3-dihydro-1H-isoindol-5-carbonyl]-amino}-propyl)-2-methyl-piperidinium chloride] was run?
A: 9.1%

Q: `N#Cc1ccc(CN2C(=O)c3ccc(C(=O)NCCN4CCCC4)cc3C2=O)cc1` [Compound 131, 1-(2-{[2-(4-cyano-benzyl)-1,3-dioxo-2,3-dihydro-1H-isoindol-5-carbonyl]-amino}-ethyl)-pyrrolidinium chloride] was tested. Which inhibition at 10 µM did it give?
A: 0.6%

Same assay, conditions: 100 μM; HEK293 cells expressing α1G and Kir2.1; read-out: Inhibitory effect (%) of T-type calcium channel, Inhibition (%)

Q: With `O=C(NCCN1CCCCC1)c1ccc2c(c1)C(=O)N(Cc1cccc(F)c1)C2=O` [Compound 61, 1-(2-{[2-(3-fluoro-benzyl)-1,3-dioxo-2,3-dihydro-1H-isoindol-5-carbonyl]-amino}-ethyl)-piperidinium chloride] as the compound, how does the inhibition at 100 µM read?
A: 85.5%

Q: `CC1CCCCN1CCCNC(=O)c1ccc2c(c1)C(=O)N(Cc1ccc(F)cc1)C2=O` (stereo not shown) [Compound 69, 1-(3-{[2-(4-fluoro-benzyl)-1,3-dioxo-2,3-dihydro-1H-isoindol-5-carbonyl]-amino}-propyl)-2-methyl-piperidinium chloride] was tested. Which inhibition at 100 µM did it give?
A: 84.7%

Q: With `COc1ccccc1CN1C(=O)c2ccc(C(=O)NCCN3CCCCC3)cc2C1=O` [Compound 111, 1-(2-{[2-(2-methoxy-benzyl)-1,3-dioxo-2,3-dihydro-1H-isoindol-5-carbonyl]-amino}-ethyl)-piperidinium chloride] as the compound, how does the inhibition at 100 µM read?
A: 69.5%

Q: `COc1ccccc1CN1C(=O)c2ccc(C(=O)NCCCN3CCCCC3C)cc2C1=O` (stereo not shown) [Compound 112, 1-(3-{[2-(2-methoxy-benzyl)-1,3-dioxo-2,3-dihydro-1H-isoindol-5-carbonyl]-amino}-propyl)-2-methyl-piperidinium chloride] was tested. Which inhibition at 100 µM did it give?
A: 75.1%

Q: Which inhibition at 100 µM does the source give for `COc1ccccc1CN1C(=O)c2ccc(C(=O)NCCN3CCCC3)cc2C1=O` [Compound 113, 1-(2-{[2-(2-methoxy-benzyl)-1,3-dioxo-2,3-dihydro-1H-isoindol-5-carbonyl]-amino}-ethyl)-pyrrolidinium chloride] here?
A: 55.1%

Q: For `COc1ccccc1CN1C(=O)c2ccc(C(=O)NCCCN3CCCC3)cc2C1=O` [Compound 114, 1-(3-{[2-(2-methoxy-benzyl)-1,3-dioxo-2,3-dihydro-1H-isoindol-5-carbonyl]-amino}-propyl)-pyrrolidinium chloride], which inhibition at 100 µM is on record?
A: 53%

Q: How did the inhibition at 100 µM turn out when `COc1ccccc1CN1C(=O)c2ccc(C(=O)NCCN3CCOCC3)cc2C1=O` [Compound 115, 4-(2-{[2-(2-methoxy-benzyl)-1,3-dioxo-2,3-dihydro-1H-isoindol-5-carbonyl]-amino}-ethyl)-4-morpholinium chloride] was run?
A: 51.1%

Q: How did the inhibition at 100 µM turn out when `COc1ccccc1CN1C(=O)c2ccc(C(=O)NCCCN3CCOCC3)cc2C1=O` [Compound 116, 4-(3-{[2-(2-methoxy-benzyl)-1,3-dioxo-2,3-dihydro-1H-isoindol-5-carbonyl]-amino}-propyl)-4-morpholinium chloride] was run?
A: 48.8%

Q: How did the inhibition at 100 µM turn out when `COc1cccc(CN2C(=O)c3ccc(C(=O)NCCN4CCCCC4)cc3C2=O)c1` [Compound 117, 1-(2-{[2-(3-methoxy-benzyl)-1,3-dioxo-2,3-dihydro-1H-isoindol-5-carbonyl]-amino}-ethyl)-piperidinium chloride] was run?
A: 69.8%

Q: For `COc1cccc(CN2C(=O)c3ccc(C(=O)NCCCN4CCCCC4C)cc3C2=O)c1` (stereo not shown) [Compound 118, 1-(3-{[2-(3-methoxy-benzyl)-1,3-dioxo-2,3-dihydro-1H-isoindol-5-carbonyl]-amino}-propyl)-2-methyl-piperidinium chloride], which inhibition at 100 µM is on record?
A: 71.1%

Q: Which inhibition at 100 µM does the source give for `COc1cccc(CN2C(=O)c3ccc(C(=O)NCCN4CCCC4)cc3C2=O)c1` [Compound 119, 1-(2-{[2-(3-methoxy-benzyl)-1,3-dioxo-2,3-dihydro-1H-isoindol-5-carbonyl]-amino}-ethyl)-pyrrolidinium chloride] here?
A: 56.3%

Q: How did the inhibition at 100 µM turn out when `COc1cccc(CN2C(=O)c3ccc(C(=O)NCCCN4CCCC4)cc3C2=O)c1` [Compound 120, 1-(3-{[2-(3-methoxy-benzyl)-1,3-dioxo-2,3-dihydro-1H-isoindol-5-carbonyl]-amino}-propyl)-pyrrolidinium chloride] was run?
A: 63.7%

Q: How did the inhibition at 100 µM turn out when `COc1cccc(CN2C(=O)c3ccc(C(=O)NCCN4CCOCC4)cc3C2=O)c1` [Compound 121, 4-(2-{[2-(3-methoxy-benzyl)-1,3-dioxo-2,3-dihydro-1H-isoindol-5-carbonyl]-amino}-ethyl)-4-morpholinium chloride] was run?
A: 57.6%

Q: How did the inhibition at 100 µM turn out when `COc1cccc(CN2C(=O)c3ccc(C(=O)NCCCN4CCOCC4)cc3C2=O)c1` [Compound 122, 4-(3-{[2-(3-methoxy-benzyl)-1,3-dioxo-2,3-dihydro-1H-isoindol-5-carbonyl]-amino}-propyl)-4-morpholinium chloride] was run?
A: 56.6%

Q: `COc1ccc(CN2C(=O)c3ccc(C(=O)NCCN4CCCCC4)cc3C2=O)cc1` [Compound 123, 1-(2-{[2-(4-methoxy-benzyl)-1,3-dioxo-2,3-dihydro-1H isoindol-5-carbonyl]-amino}-ethyl)-piperidinium chloride] was tested. Which inhibition at 100 µM did it give?
A: 64.3%

Q: With `COc1ccc(CN2C(=O)c3ccc(C(=O)NCCCN4CCCCC4C)cc3C2=O)cc1` (stereo not shown) [Compound 124, 1-(3-{[2-(4-methoxy-benzyl)-1,3-dioxo-2,3-dihydro-1H-isoindol-5-carbonyl]-amino}-propyl)-2-methyl-piperidinium chloride] as the compound, how does the inhibition at 100 µM read?
A: 77.7%

Q: Which inhibition at 100 µM does the source give for `COc1ccc(CN2C(=O)c3ccc(C(=O)NCCN4CCCC4)cc3C2=O)cc1` [Compound 125, 1-(2-{[2-(4-methoxy-benzyl)-1,3-dioxo-2,3-dihydro-1H-isoindol-5-carbonyl]-amino}-ethyl)-pyrrolidinium chloride] here?
A: 65.2%

Q: With `COc1ccc(CN2C(=O)c3ccc(C(=O)NCCCN4CCCC4)cc3C2=O)cc1` [Compound 126, 1-(3-{[2-(4-methoxy-benzyl)-1,3-dioxo-2,3-dihydro-1H-isoindol-5-carbonyl]-amino}-propyl)-pyrrolidinium chloride] as the compound, how does the inhibition at 100 µM read?
A: 73.8%

Q: How did the inhibition at 100 µM turn out when `COc1ccc(CN2C(=O)c3ccc(C(=O)NCCN4CCOCC4)cc3C2=O)cc1` [Compound 127, 4-(2-{[2-(4-methoxy-benzyl)-1,3-dioxo-2,3-dihydro-1H-isoindol-5-carbonyl]-amino}-ethyl)-4-morpholinium chloride] was run?
A: 51.7%

Q: How did the inhibition at 100 µM turn out when `COc1ccc(CN2C(=O)c3ccc(C(=O)NCCCN4CCOCC4)cc3C2=O)cc1` [Compound 128, 4-(3-{[2-(4-methoxy-benzyl)-1,3-dioxo-2,3-dihydro-1H-isoindol-5-carbonyl]-amino}-propyl)-4-morpholinium chloride] was run?
A: 52.9%

These compounds were tested against T2, α1G T-type Ca2+ currents (Homo sapiens, UniProt O43497) (assay: Electrophysiological whole cell patch clamp method in HEK293 cell). Settings: peak current, step to −30 mV, read-out: Activity (IC50) against T-type calcium channel.
T2 construct: expressed in transfected cells; host or cells: HEK293
T2 sequence (O43497 whole entry): as above
Assay type: cell-based
Experimental: Meanwhile, the antagonistic activity of the novel compound of Formula (1) herein against T-type calcium channel was tested as described below. The synthesized compounds were tested for the activity against T-type calcium channel with FDSS6000. […] For the recordings of α1G T-type Ca^2+ currents, the standard whole-cell patch-clamp method was utilized as previously described. Briefly, borosilicate glass electrodes with a resistance of 3˜4 MΩ were pulled and filled with the internal solution contained (in mM): 130 KCl, 11 EGTA, 5 Mg-ATP, and 10 HEPES (pH 7.4). […] The molar concentrations of test compounds required to produce 50% inhibition of peak currents (IC50) were determined from fitting raw data into dose-response curves. The current recordings were obtained using an EPC-9 amplifier and Pulse/Pulsefit software program (HEKA, Germany).

Q: With `O=C(NCCN1CCCCC1)c1ccc2c(c1)C(=O)N(Cc1cccc(F)c1)C2=O` [Compound 61, 1-(2-{[2-(3-fluoro-benzyl)-1,3-dioxo-2,3-dihydro-1H-isoindol-5-carbonyl]-amino}-ethyl)-piperidinium chloride] as the compound, how does the IC50 read?
A: 8520 ± 750 nM

Q: For `CC1CCCCN1CCCNC(=O)c1ccc2c(c1)C(=O)N(Cc1ccc(F)cc1)C2=O` (stereo not shown) [Compound 69, 1-(3-{[2-(4-fluoro-benzyl)-1,3-dioxo-2,3-dihydro-1H-isoindol-5-carbonyl]-amino}-propyl)-2-methyl-piperidinium chloride], which IC50 is on record?
A: 2030 ± 120 nM

Q: How did the IC50 turn out when `CC1CCCCN1CCCNC(=O)c1ccc2c(c1)C(=O)N(Cc1ccccc1Cl)C2=O` (stereo not shown) [Compound 76, 1-(3-{[2-(2-chloro-benzyl)-1,3-dioxo-2,3-dihydro-1H-isoindol-5-carbonyl]-amino}-propyl)-2-methyl-piperidinium chloride] was run?
A: 1520 ± 190 nM

Q: Which IC50 does the source give for `CC1CCCCN1CCCNC(=O)c1ccc2c(c1)C(=O)N(Cc1cccc(Cl)c1)C2=O` (stereo not shown) [Compound 82, 1-(3-{[2-(3-chloro-benzyl)-1,3-dioxo-2,3-dihydro-1H-isoindol-5-carbonyl]-amino}-propyl)-2-methyl-piperidinium chloride] here?
A: 1810 ± 460 nM

Q: With `O=C(NCCN1CCCCC1)c1ccc2c(c1)C(=O)N(Cc1ccc(Cl)cc1)C2=O` [Compound 87, 1-(2-{[2-(4-chloro-benzyl)-1,3-dioxo-2,3-dihydro-1H-isoindol-5-carbonyl]-amino}-ethyl)-piperidinium chloride] as the compound, how does the IC50 read?
A: 960 ± 70 nM
